According to ChEMBL document CHEMBL1152079, “Synthesis and biological evaluation of novel 2-vinyl carbapenems. Remarkable DHP-1 stability of 1-substituted analogs” (1996):
Values after ≈ are worked out from the molar mass of the structure shown.

Key:
Pseudomonas aeruginosa = test: Compound was tested for its minimal inhibitory concentration against Pseudomonas aeruginosa 26; assay type: functional
Escherichia coli = test: Compound was tested for its minimal inhibitory concentration against Escherichia coli NIHJ JC-2; assay type: functional
Proteus vulgaris = test: Compound was tested for its minimal inhibitory concentration against Proteus vulgaris IAM 1025; assay type: functional
Staphylococcus aureus [1] = test: Compound was tested for its minimal inhibitory concentration against Staphylococcus aureus 3004 (Methicillin resistant S. aureus); assay type: functional
Mus musculus [2] = test: Percent urinary recovery was measured in mice after subcutaneous administration at dose 20 mg/kg.; assay type: functional, organism-based; set-up: dose 20 mg/kg; details: Urine
Staphylococcus aureus [3] = test: Compound was tested for its minimal inhibitory concentration against Staphylococcus aureus 209 JC-1; assay type: functional
[4] = target: T1, Dipeptidase 1 (Sus scrofa) (UniProt P22412); test: Susceptibility relative to imipenem was measured against Swine renal Dehydropeptidase-1
T1 sequence (whole entry): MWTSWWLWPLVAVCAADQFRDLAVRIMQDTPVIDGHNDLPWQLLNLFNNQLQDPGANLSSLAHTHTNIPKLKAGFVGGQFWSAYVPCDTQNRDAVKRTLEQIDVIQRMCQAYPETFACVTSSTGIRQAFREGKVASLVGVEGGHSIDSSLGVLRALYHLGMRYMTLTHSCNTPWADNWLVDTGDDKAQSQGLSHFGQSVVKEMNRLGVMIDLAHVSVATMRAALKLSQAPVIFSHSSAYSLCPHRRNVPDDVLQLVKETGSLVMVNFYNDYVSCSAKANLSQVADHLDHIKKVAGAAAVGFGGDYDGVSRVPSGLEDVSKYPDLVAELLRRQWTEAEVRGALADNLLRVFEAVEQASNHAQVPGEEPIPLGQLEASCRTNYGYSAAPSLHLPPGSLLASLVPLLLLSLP

Mus musculus [5] = species on record: Mus musculus; test: Susceptibility relative to meropenem was measured against mouse DHP-1.
[6] = target: Dipeptidase 1 (Homo sapiens) (UniProt P16444); test: Susceptibility relative to meropenem was measured against human Dehydropeptidase-1
[7] = target: Dipeptidase 1 (Rattus norvegicus) (UniProt P31430); test: Susceptibility relative to meropenem was measured against rat Dehydropeptidase-1
[8] = system: Dipeptidase 1 (Canis lupus familiaris); test: Susceptibility relative to meropenem was measured against dog Dehydropeptidase-1
Cercopithecidae = test: Susceptibility relative to meropenem was measured against monkey DHP-1.
Oryctolagus cuniculus = species on record: Oryctolagus cuniculus; test: Susceptibility relative to meropenem was measured against rabbit DHP-1.

Sequence of Dipeptidase 1 (Rattus norvegicus) (P31430 whole entry, looked up): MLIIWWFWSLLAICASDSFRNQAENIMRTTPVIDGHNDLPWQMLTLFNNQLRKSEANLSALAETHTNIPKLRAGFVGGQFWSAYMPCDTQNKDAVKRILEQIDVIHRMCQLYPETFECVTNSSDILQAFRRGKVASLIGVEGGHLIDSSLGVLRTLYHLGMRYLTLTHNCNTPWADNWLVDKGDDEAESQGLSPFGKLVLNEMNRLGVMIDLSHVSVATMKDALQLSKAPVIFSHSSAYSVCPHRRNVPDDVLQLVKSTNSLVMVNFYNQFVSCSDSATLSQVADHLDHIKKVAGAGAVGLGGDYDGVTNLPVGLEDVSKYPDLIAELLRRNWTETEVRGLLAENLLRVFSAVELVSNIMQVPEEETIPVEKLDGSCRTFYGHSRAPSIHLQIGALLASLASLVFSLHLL
Sequence of Dipeptidase 1 (Homo sapiens) (P16444 whole entry, looked up): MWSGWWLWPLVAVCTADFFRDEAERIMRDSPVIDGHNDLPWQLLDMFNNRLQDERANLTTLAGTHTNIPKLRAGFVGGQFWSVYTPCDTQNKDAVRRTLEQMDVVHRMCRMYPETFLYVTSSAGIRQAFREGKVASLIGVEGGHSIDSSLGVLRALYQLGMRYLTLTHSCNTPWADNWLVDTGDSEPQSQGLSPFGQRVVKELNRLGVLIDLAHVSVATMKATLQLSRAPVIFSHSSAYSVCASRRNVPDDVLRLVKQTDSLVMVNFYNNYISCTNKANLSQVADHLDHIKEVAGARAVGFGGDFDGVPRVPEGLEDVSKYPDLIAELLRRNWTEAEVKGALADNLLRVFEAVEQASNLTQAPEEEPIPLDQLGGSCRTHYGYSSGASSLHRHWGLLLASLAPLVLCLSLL

| SMILES | MIC (Pseudomonas aeruginosa) [µg/mL] | MIC (Escherichia coli) [µg/mL] | MIC (Proteus vulgaris) [µg/mL] | MIC (Staphylococcus aureus [1]) [µg/mL] | Recovery (Mus musculus [2]) [%] | MIC (Staphylococcus aureus [3]) [µg/mL] | Susceptibility [4] | Susceptibility (Mus musculus [5]) | Susceptibility [6] | Susceptibility [7] | Susceptibility [8] | Susceptibility (Cercopithecidae) | Susceptibility (Oryctolagus cuniculus) |
| --- | --- | --- | --- | --- | --- | --- | --- | --- | --- | --- | --- | --- | --- |
| COC/C(=C\[C@@H]1CCCN1)C1=C(C(=O)O)N2C(=O)[C@H]([C@@H](C)O)[C@H]2C1 | 25 (≈ 74.3 µM) | 0.78 (≈ 2.32 µM) | 50 (≈ 149 µM) | > 100 | 64.4 | 0.2 (≈ 0.595 µM) | < 0.008 | – | – | – | – | – | – |
| C[C@@H](O)[C@H]1C(=O)N2C(C(=O)O)=C(/C=C/[C@@H]3CCCN3)C[C@H]12 | 3.13 (≈ 10.7 µM) | 1.56 (≈ 5.34 µM) | 1.56 (≈ 5.34 µM) | > 100 | 20.2 | 0.1 (≈ 0.342 µM) | 0.22 | – | – | – | – | – | – |
| CSC/C(=C\[C@@H]1CCCN1)C1=C(C(=O)O)N2C(=O)[C@H]([C@@H](C)O)[C@H]2C1 | 25 (≈ 70.9 µM) | 0.78 (≈ 2.21 µM) | 3.13 (≈ 8.88 µM) | 100 (≈ 284 µM) | 54.3 | 0.1 (≈ 0.284 µM) | < 0.006 | – | – | – | – | – | – |
| C[C@@H](O)[C@H]1C(=O)N2C(C(=O)O)=C(/C=C/[C@@H]3CCCN3)[C@H](C)[C@H]12 | 3.13 (≈ 10.2 µM) | 0.78 (≈ 2.55 µM) | 6.25 (≈ 20.4 µM) | 100 (≈ 326 µM) | 60.7 | < 0.025 | 0.043 | – | – | – | – | – | – |
| C/C(=C\[C@@H]1CCCN1)C1=C(C(=O)O)N2C(=O)[C@H]([C@@H](C)O)[C@H]2C1 | 3.13 (≈ 10.2 µM) | 0.39 (≈ 1.27 µM) | 1.56 (≈ 5.09 µM) | 50 (≈ 163 µM) | 67.8 | < 0.025 | 0.036 | 0.45 | 0.45 | 0.11 | 0.249 | 0.032 | 0.015 |
| C[C@@H](O)[C@H]1C(=O)N2C(C(=O)O)=C(/C(=C/[C@@H]3CCCN3)CN)C[C@H]12 | > 100 | 100 (≈ 311 µM) | > 100 | > 100 | 52.1 | 0.78 (≈ 2.43 µM) | 0.004 | – | – | – | – | – | – |
| C[C@@H](O)[C@H]1C(=O)N2C(C(=O)O)=C(SCCNC=N)C[C@H]12.O [IMIPENEM] | 0.78 | 0.78 | 3.13 | 100 | 28.9 | < 0.025 | 1 | – | – | – | – | – | – |
